Test results reported in patent publication US20110104167A1, “Compositions and Methods for Diagnosing and Treating Insulin Resistance” (YEDA RESEARCH AND DEVELOPMENT CO. LTD., priority 2004, published 2011).
Where a SMILES comes first, the peptide text is derived from it. The star is where a group is joined. Cbz = O=C(OCc1ccccc1)*

Assays:
IRS-1 = assay: Effect of proteosome inhibitor on IRS-1 protein content and Tyr phosphorylation; format: cell-based; conditions: not shown
CHO-T cells [1] = assay: Phosphorylation (mobility shift) of truncated IRS-1 PH/PTB constructs in CHO-T cells; format: cell-based, Chinese Hamster; conditions: 25 nM calyculin A 60 min
Experimental: (§1) FIGS. 7a-c show In vivo phosphorylation of PH/PTB-L in response to insulin. CHO-T cells were transiently transfected with pcDNA3-Myc-PH/PTB (1-1290 nt) or with an insert-free plasmid (control). Twenty-four hours post-transfection, the cells were deprived of serum for 16 h and were then treated with insulin for the indicated time periods. Cell extracts (100 μg) were resolved on 10% SDS-PAGE and immunoblotted with anti-pY or anti-Myc antibodies (FIG. 7a). In parallel, samples (100 μg, 40 μl) were incubated with 3 units (U) of calf intestine phosphatase (CIP) at 37° C. for 1 h. The samples were resolved on 10% SDS-PAGE and immunoblotted with anti-Myc antibodies (FIG. 7b). The results are of a representative of two experiments. FIG. 7c—CHO^PH/PTB-L cells were starved in serum-free F12 medium for 16 h. The cells were treated for 30 min with the indicated inhibitors prior to being treated with 100 nM insulin for 30 min. Cell extracts were prepared, samples were resolved on 10% SDS-PAGE and were immunoblotted with anti-Myc antibodies. Results are of a representative of three experiments.
FIGS. 8a-b show the effects of insulin on Serine phosphorylation of Myc-PH/PTB-L^7A CHO-T cells were transiently transfected with constructs encoding Myc-PH/PTB-L (1-1290 nt), either wild type (WT) or the 7A mutant (FIG. 8a). Alternatively, the cells were transfected or with the constructs encoding Myc-PH/PTB-L (1-1290 nt; 1-430 aa) or Myc-PH/PTB-S (1-1095 nt; 1-365 aa, FIG. 8b). Following 24 hours in culture, the cells were incubated in serum-free F12 medium for 16 ch prior to being treated with insulin for the indicated times. Cell extracts were resolved on 10% SDS-PAGE and immunoblotted with anti-Myc antibodies. Results are of a representative of three experiments.
FIGS. 9a-b show the effects of insulin and calyculin A on Ser phosphorylation of PH/PTB-L mutants. FIG. 9a—CHO-T cells were transiently transfected with constructs expressing either Myc-PH/PTB^WT or the following PH/PTB mutants: S336A, S407A, S408A, S407/8A and S3A (S336/407/408A). Following 24 hours the cells were deprived of serum for 16 h, and were treated with insulin for the indicated times. Cell extracts were resolved on 10% SDS-PAGE and immunoblotted with anti-Myc antibodies. The results are of a representative of two-three experiments. FIG. 9b—CHO-T cells were transiently transfected with pcDNA3-myc-PH/PTB^WT or pcDNA3-myc-PH/PTB^S408A. Following 24 hours the cells were starved for 16 h and were then treated either with 100 nM insulin for 30 min or with 25 nM calyculin A for 60 min. Cell extracts were resolved on 10% SDS-PAGE and were immunoblotted with anti-Myc antibodies. Results are of a representative of two experiments.
Plasmids construction—i. Myc-tagged-IRS-1 The cDNA, encoding for the mouse IRS-1 in the pCNA-3 expression plasmid (35) was digested with Hind III and BspE-1. This deleted a 9 by fragment from the 5′-IRS-1 cDNA that was replaced by a double stranded synthetic oligonucleotide encoding the Myc tag and the missing amino-acids of IRS-1 (bold) […] (SEQ ID NO. 9). ii. Myc-tagged truncated IRS-1 (aa 1-430, PH/PTB-L) Myc-tagged mouse IRS-1 cDNA (N-terminus, 1-1290 nt), encoding for the first 430 aa of IRS-1, was PCR-amplified with the following primers. 5′-CAGGATCCGCATATGGAACAAAAGCTC-3′ (sense) (SEQ ID NO. 10); 5′-GAGAATTCATCAGGGACTAGAACCATA-3′ (anti-sense) (SEQ ID NO. 11), using as a template the pcDNA3-Myc-IRS-1 plasmid. The PCR product was ligated into a pGEM-T. The insert was excised from pGEM-T with BamH I and EcoR I (italic), and then was ligated into pcDNA3 at the same restriction sites to generate pcDNA3-Myc-IRS-1^PH/PTB-L. iii. Myc-tagged truncated IRS-1 (aa 1-365, PH/PTB-S) Myc-tagged mouse IRS-1 cDNA (N-terminus, 1-1095 nt), encoding for the first 365 aa of IRS-1, was PCR-amplified with the following primers: 5′ […]-3′ (sense) (SEQ ID NO. 12); 5′ […] 3′ (anti sense) (SEQ ID NO. 13) using as a template the pcDNA3-Myc-IRS-1. […]

S408 of IRS-1 = assay: In vivo phosphorylation of S408 of IRS-1 in cultured Fao cells; format: cell-based, rat
Experimental: Following 48 hours, the cells were starved for 16 hours. The medium was removed and the cells were incubated with or without 100 nM insulin for the indicated times (FIG. 10a). Alternatively, the cells were incubated with insulin, SMase or calyculin A as indicated (FIG. 10b). Cytosolic extracts (100 μg) were resolved on 7.5% SDS-PAGE and immunoblotted with anti-phospho-Ser 408 antibody or anti-PY antibodies as indicated.
Infection of Fao cells with adenovirus—Fao cells were grown in RPMI medium containing 10% FCS. At 70% confluence cells were infected with adenoviruses harboring the gene of interest at a titer of 7 10^7 PFU/ml. After incubation for 2 h hours at 37° C., the virus-containing medium was diluted 1:5 in fresh RPMI medium. After 24 h the medium was replaced with a fresh RPMI medium containing 10% FCS. 48 h post-infection the Fao cells were starved in serum-free RPMI for 16 h and were then subjected to the indicated treatments as described below.
Treatment of cells and preparation of extracts—Virally-infected Fao cells were grown as described above. Nave Rat hepatoma (Fao) cells or CHO cells were grown in RPMI medium supplemented with 10% fetal calf serum as described (22). At 70-80% confluence, cells were deprived of serum for 16 h prior to each experiment, and were then incubated with inducers of insulin resistance and/or insulin. […]

CHO-T cells [2] = assay: Insulin-induced Tyr phosphorylation of IRS-1 in stably transfected CHO-T cells; format: cell-based, Chinese Hamster
Experimental: FIGS. 1a-c show Tyrosine (Tyr) phosphorylation of IRS-1^7A and its interactions with IR. FIG. 1a—monolayers of CHO-T cells stably overexpressing either WT-IRS-1 (CHO-T^WT) or IRS-1^7A (CHO-T^7A) at 80% confluence (grown in 6 cm plates) were deprived of serum for 16 h prior to the experiment. The cells were then incubated with insulin for the indicated times at 37° C. Cells extracts (100 μg) were resolved on 7.5 SDS-PAGE and immunoblotted with the indicated antibodies. The results are of a representative of six experiments. FIG. 1b—IRS-1 was isolated from CHO-T^WT or CHO-T^7A cells. In vitro phosphorylation of IRS-1^WT and IRS-1^7A by Insulin receptor (IR) was effected as described under “Materials and Experimental Procedures” section of the Examples section which follows. The reaction mixture was subjected to immunoprecipitation with anti-IRS-1 antibodies. Immunocomplexes were resolved on 7.5 SDS-PAGE and immunoblotted with anti-phosphotyrosine (pY) or anti IRS-1 antibodies. FIG. 1c—CHO-T^WT (expressing wild type IRS-1) and CHO-T^7A (expressing the 7A IRS-1 mutant) cells were deprived of serum for 16 h prior to the experiment. The cells were stimulated with 100 nM insulin for the indicated times at 37° C. Cell extracts were prepared and samples (1 mg) were bound to immobilized IR. […]

insulin receptor = conditions: Fao cells, 10^−7M insulin, prolonged; cited from earlier work
[3] = target: insulin receptor (IR) of Fao rat hepatoma cells (rat (Fao rat hepatoma cells)) (UniProt P15127); assay: cell-based or functional assay
Myc-PH/PTB-L = target: T1, Myc-PH/PTB-L (Mus musculus, UniProt P35569); assay: In vitro dephosphorylation of Myc-PH/PTB-L with calf intestine alkaline phosphatase; format: biochemical; conditions: 3 units CIP, 37° C., 1 h
T1 construct: Myc-tagged truncated IRS-1 (aa 1-430, PH/PTB-L); expressed in transfected cells; host or cells: CHO-T cells, transient transfection with pcDNA3-Myc-PH/PTB (1-1290 nt)
T1 sequence (P35569 1-430): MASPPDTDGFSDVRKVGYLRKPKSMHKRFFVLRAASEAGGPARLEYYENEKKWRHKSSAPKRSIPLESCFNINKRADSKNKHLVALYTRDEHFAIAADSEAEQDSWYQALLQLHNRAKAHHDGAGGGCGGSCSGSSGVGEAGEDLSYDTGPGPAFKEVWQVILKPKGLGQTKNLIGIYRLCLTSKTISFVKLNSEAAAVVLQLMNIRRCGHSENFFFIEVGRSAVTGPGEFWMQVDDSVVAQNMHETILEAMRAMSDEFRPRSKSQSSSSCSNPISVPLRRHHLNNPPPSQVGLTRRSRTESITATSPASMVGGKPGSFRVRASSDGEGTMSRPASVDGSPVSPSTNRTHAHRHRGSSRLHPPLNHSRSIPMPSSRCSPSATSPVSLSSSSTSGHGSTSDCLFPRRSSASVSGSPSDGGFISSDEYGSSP
Experimental: as §1

Sequence of insulin receptor (IR) of Fao rat hepatoma cells (rat (Fao rat hepatoma cells)) (P15127 27-1383 limits assumed): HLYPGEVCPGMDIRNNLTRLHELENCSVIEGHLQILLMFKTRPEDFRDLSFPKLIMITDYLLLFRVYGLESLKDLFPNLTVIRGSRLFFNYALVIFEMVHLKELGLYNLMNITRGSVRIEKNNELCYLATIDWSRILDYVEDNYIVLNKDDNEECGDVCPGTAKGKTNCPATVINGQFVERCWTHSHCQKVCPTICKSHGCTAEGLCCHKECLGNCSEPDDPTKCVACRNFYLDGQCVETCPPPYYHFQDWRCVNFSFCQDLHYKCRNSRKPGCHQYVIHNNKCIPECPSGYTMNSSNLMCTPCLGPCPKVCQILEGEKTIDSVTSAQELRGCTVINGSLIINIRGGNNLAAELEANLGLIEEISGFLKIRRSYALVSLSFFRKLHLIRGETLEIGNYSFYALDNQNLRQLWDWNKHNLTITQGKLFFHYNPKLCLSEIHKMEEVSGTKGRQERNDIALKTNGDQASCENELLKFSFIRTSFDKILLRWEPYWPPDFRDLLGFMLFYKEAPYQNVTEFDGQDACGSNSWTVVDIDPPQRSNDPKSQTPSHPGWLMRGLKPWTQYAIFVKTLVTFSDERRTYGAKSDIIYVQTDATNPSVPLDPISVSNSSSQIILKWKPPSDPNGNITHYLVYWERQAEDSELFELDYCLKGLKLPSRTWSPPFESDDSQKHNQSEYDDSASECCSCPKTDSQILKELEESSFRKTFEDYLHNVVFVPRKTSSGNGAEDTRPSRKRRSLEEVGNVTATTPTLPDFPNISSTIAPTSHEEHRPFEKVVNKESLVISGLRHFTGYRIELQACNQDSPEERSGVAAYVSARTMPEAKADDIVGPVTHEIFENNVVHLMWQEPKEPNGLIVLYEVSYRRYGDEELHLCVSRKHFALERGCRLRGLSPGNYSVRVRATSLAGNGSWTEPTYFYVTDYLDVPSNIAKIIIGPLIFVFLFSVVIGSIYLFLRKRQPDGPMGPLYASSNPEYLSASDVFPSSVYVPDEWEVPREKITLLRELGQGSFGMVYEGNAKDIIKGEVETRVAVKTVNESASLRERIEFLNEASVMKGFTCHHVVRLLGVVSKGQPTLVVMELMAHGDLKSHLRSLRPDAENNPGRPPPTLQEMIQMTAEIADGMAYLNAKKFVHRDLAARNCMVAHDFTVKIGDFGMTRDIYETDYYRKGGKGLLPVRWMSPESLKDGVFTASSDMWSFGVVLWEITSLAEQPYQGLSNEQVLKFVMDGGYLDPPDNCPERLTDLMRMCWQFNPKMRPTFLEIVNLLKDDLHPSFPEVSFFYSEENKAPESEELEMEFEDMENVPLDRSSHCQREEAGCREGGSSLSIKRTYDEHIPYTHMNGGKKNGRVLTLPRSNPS

Molecule: CC(C)C[C@@H](C=O)NC(=O)[C@H](CC(C)C)NC(=O)[C@H](CC(C)C)NC(=O)OCc1ccccc1 [MG-132] (Cbz-Leu-Leu-Leu-aldehyde)
- effect on protein content and Tyr phosphorylation patterns of IRS-1^7A and IRS-1^WT (IRS-1): did not alter significantly

Molecule: COC[C@@H]([C@H](O)[C@H](O)C(=O)NCC[C@H](C)c1nc(/C=C/C[C@@H]2O[C@]3(C[C@@H](O)[C@@H]2C)O[C@H]([C@H](C[C@H](O)[C@H](C)[C@H](O)[C@H](C)/C=C(C)/C(C)=C/C=C/C(C)=C\C#N)OC)[C@H](OP(=O)(O)O)C3(C)C)co1)N(C)C [Calyculin A]
- Ser phosphorylation (mobility shift) of Myc-PH/PTB-L^WT (CHO-T cells [1]): triggers Ser phosphorylation
- mobility shift when Ser408 was mutated to Ala (CHO-T cells [1]): significantly reduced
- in vivo phosphorylation of S408 (S408 of IRS-1; Fao cells infected with IRS-1^WT): induced phosphorylation of S408

Molecule: insulin: human insulin used as stimulus
- insulin treatment time at which maximal Tyr phosphorylation of IRS-1 was detected (CHO-T cells [2]): 2 min
- incubation time required for maximal phosphorylation of Ser408 (S408 of IRS-1; 100 nM insulin): 30 to 60 min
- reduction in ability of IRS-1 to interact with the insulin receptor (insulin receptor): > 40%

Molecule: Myc-IRS-1^WT (Myc-tagged wild-type mouse IRS-1 expressed in Fao cells from an adenoviral construct) (from UniProt P35569 4-1233)
- reduction of Tyr phosphorylation content following prolonged (60 min) insulin treatment [3]: 55%

B1: CIP: calf intestine alkaline phosphatase (protein, UniProt P19111 20-506, looked up)
Intestinal-type alkaline …: LVPVEEEDPAFWNRQAAQALDVAKKLQPIQTAAKNVILFLGDGMGVPTVTATRILKGQMNGKLGPETPLAMDQFPYVALSKTYNVDRQVPDSAGTATAYLCGVKGNYRTIGVSAAARYNQCKTTRGNEVTSVMNRAKKAGKSVGVVTTTRVQHASPAGAYAHTVNRNWYSDADLPADAQMNGCQDIAAQLVNNMDIDVILGGGRKYMFPVGTPDPEYPDDASVNGVRKRKQNLVQAWQAKHQGAQYVWNRTALLQAADDSSVTHLMGLFEPADMKYNVQQDHTKDPTLQEMTEVALRVVSRNPRGFYLFVEGGRIDHGHHDDKAYMALTEAGMFDNAIAKANELTSELDTLILVTADHSHVFSFGGYTLRGTSIFGLAPSKALDSKSYTSILYGNGPGYALGGGSRPDVNDSTSEDPSYQQQAAVPQASETHGGEDVAVFARGPQAHLVHGVEEETFVAHIMAFAGCVEPYTDCNLPAPTTATSIPD
- effect on mobility shift of PH/PTB-L from insulin-treated cells (Myc-PH/PTB-L): abolished the mobility shift
